This is an account of results in US20240398819A1 (Rhode Island Hospital, priority 2023, published 2024).

For assay [1] the following is noted: 48 hour intravenous infusion, 30 μg/kg/day; compared with placebo group; cited from earlier work.
Assay [2] concerns fibrocytes from explanted human anterior cruciate ligament (ACL) specimens. In words: Effects of relaxin-2 antagonist / receptor antagonist on cultured ACL cells from patients with ACL reconstruction (RT-PCR). The assay is classed as cell-based. As to conditions: Folic Acid 10 μg/ml, NADH 100 μg/ml. On the procedure:
Measurements of expressions of MMP13, collagen 1A, collagen 3A, MMP3, and MMP1 in patient ACL tissues were conducted (FIG. 5). Biopsy tissues of the ACL from 20 patients (10 male and 10 female) who underwent surgeries for ACL reconstruction were harvested. The patients' ages ranged from 16 to 61 years, with equal numbers of males and females. The protocol for patient enrollment was approved by the IRB committee at our institution. […] After treatment, cells were lysed and analyzed for the expressions of type I collagen, type III collagen, MMP1, MMP3, and MMP13 using quantitative real-time polymerase chain reaction (RT-PCR). MMP13 expression (FIG. 5A); collagen 1A expression (FIG. 5B); collagen 3A expression (FIG. 5C); MMP3 expression (FIG. 5D); and MMP1 expression (FIG. 5E), all present the innovation. The protocol for patient enrollment was approved by the IRB committee at Rhode Island Hospital. GraphPad PRISM 8 software was used to perform all statistical analyses. Results were presented as mean+standard error of the mean (SEM) of different samples and considered significant when p<0.05. A t-test was used to compare any two groups, *p<0.05, **p<0.01, ***p<0.001 compared to their individual control group; ##p<0.01, compared to their individual relaxin-2 group.
Measurements of expressions of MMP13, collagen 1A, collagen 3A, MMP3, and MMP1 in patient ACL tissues were conducted (FIG. 5). Biopsy tissues of the ACL from 20 patients (10 male and 10 female) who underwent surgeries for ACL reconstruction were harvested. The patients' ages ranged from 16 to 61 years, with equal numbers of males and females. The protocol for patient enrollment was approved by the TRB committee at our institution.
After treatment, cells were lysed and analyzed for the expressions of type I collagen, type III collagen, MMP1, MMP3, and MMP13 using quantitative real-time polymerase chain reaction (RT-PCR). FIG. 5 provides expressions of MMP13, collagen 1A, collagen 3A, MMP3, and MMP1 in patient ACL tissues. (FIG. 5A) MMP13 expression; (FIG. 5B) collagen 1A expression; (FIG. 5C) collagen 3A expression; (FIG. 5D) MMP3 expression; (FIG. 5E) MMP1 expression. In FIG. 5, the protocol for patient enrollment was approved by the IRB committee at Rhode Island Hospital. GraphPad PRISM 8 software was used to perform all statistical analyses. Results were presented as mean+standard error of the mean (SEM) of different samples, and considered significant when p<0.05. A t-test was used to compare any two groups, *p<0.05, **p<0.01, ***p<0.001 compared to their individual control group; ##p<0.01, compared to their individual relaxin-2 group.

Assay [3] deals with patient ACL cells. In words: MMP gene expression (quantitative real-time RT-PCR) in cultured patient ACL cells treated with relaxin-2. The class given is cell-based, human. As to the method:
Methods: Biopsy tissues of the ACL in the knee were collected from 20 patients with ACL reconstruction (ages ranging from 16 years to 61 years old, 10 males and 10 females). The normal ACLs were obtained from the rejected human knee osteochondral grafts from the Musculoskeletal Transplant Foundation (MTF) or the donors from MedCure (ages ranging from 24 years to 84 years old, 4 male and 4 females) were used as control samples. Immunohistochemistry was performed to detect the expression of RXFP2 and apoptosis. The number of RXFP2 positive and apoptotic positive cells were counted from six different fields for each patient. ACL cells were cultured in vitro, then cells were treated with relaxin-2 at different concentrations. After treatment, cells were lysed and analyzed for the expressions of MMP1 and MMP13 using quantitative real-time polymerase chain reaction. The protocol for patient enrollment was approved by the IRB committee at Rhode Island Hospital. GraphPad PRISM 8 software was used to perform all statistical analyses. Results were presented as mean±standard error of the mean (SEM) of different samples. Data were examined by one-way analysis of variance (ANOVA) with Tukey post-hoc multiple comparison. An unpaired t-test was used to compare any two groups. A value of p<0.05 was considered to be statically significant.
Patient ACL tissues were minced and digested with 1.0 mg/mL of type II collagenase at 37° C. at 5% CO2 in 2 mL Dulbecco's modified Eagle medium F12 (DMEM/F12, Gibco) containing 1% antibiotic-antimycotic (Gibco) for 12 hours. ACL cells were then filtered through a […] nylon mesh filter and collected by centrifugation. ACL cells were plated at a density of 1×10^5 cells/cm^2 in DMEM/F12 media supplemented with 10% fetal bovine serum (FBS, Gibco) and 1% antibiotic-antimycotic in 20 cm petri dishes for passage one. The media was changed twice a week. […]
RNA was isolated using TRIzol reagent and RNeasy Mini Kit from cultured ACL cells. RNA concentrations and purity were evaluated using a Nanodrop spectrophotometer (Thermo Scientific, Wilmington, DE, USA). A total of 1 μg of sample RNA was reverse transcribed using the Quantitect RT Kit (Qiagen, cDNA was synthesized from RNA using the iScript cDNA synthesis kit (Bio-Rad). RNA concentrations and purity were evaluated using a Nanodrop spectrophotometer (Thermo Scientific, Wilmington, DE, USA). Exactly 500 ng DNA was used as the template for real-time PCR analyses. Quantitative PCR reactions were performed using SYBR Green Fast Mix in a Bio-Rad real-time PCR machine. All Taqman primer and probe mixes were from Thermo Fisher Scientific (Waltham, MA, USA). Changes in the gene expressions of MMP1 and MMP13 were measured, which were normalized to GAPDH.

Assay [4] concerns patient ACL cells. In words: cAMP level (ELISA) in patient ACL cells after relaxin-2 treatment. The assay is classed as cell-based, human. As to conditions: male and female ACL cells. As to the method:
The detection of cAMP in samples was conducted using Abcam's cAMP Complete in vitro competitive Enzyme-Linked Immunosorbent Assay (ELISA) kit. Patient samples were first thawed from −80° C. and added to a 10% protease inhibitor in RIPA buffer (Thermo Scientific) solution for cell lysis. Each sample was then pipetted up and down 10 times with a syringe every 10 minutes over the course of 30 minutes. Next, the samples were centrifuged at 14,000 RPM for 5 minutes. The supernatant was then extracted from the pellet and stored at −80° C.
Following cell lysis and supernatant extraction, the total protein concentration of the samples was determined using a BCA protein assay. Albumin standards were prepared with the RIPA buffer and protease inhibitor. […] Standards and samples were then loaded in a 96 well plate with BCA reagent and was read in a plate reader at 570 nm to determine overall protein concentrations in samples. The concentrations of cAMP were determined using Abcam's ELISA kit. […] Stop solutions were added, and the plate was read at 405 nm with correction between 570 nm and 590 nm to determine cAMP concentrations. cAMP concentrations in pmol/mg were calculated by dividing the cAMP concentrations in pmol/mL by the total protein concentrations from the BCA protein assay in mg/mL.
(Cyclic AMP is a second messenger, typically raised through Gs and lowered through Gi signalling.)

The next assay deals with ACL cells. In words: Vitamin D effects on type I collagen and MMP13 gene expression in cultured ACL cells from patients (RT-PCR). The assay is classed as cell-based, human. Particulars: 3 days; for Type I collagen expression: vitamin D 1, 10 and 100 nmol/L. On the procedure: Biopsy tissues of the ACL in the knee were collected from 20 patients with ACL reconstruction (ages ranging from 16 years to 61 years old, 10 males and 10 females). The ACL cells were cultured in vitro and treated with vitamin D at different concentrations for 3 days. Cells were then lysed and analyzed for expressions of type I collagen and MMP13 genes using quantitative real-time polymerase chain reaction. The protocol for patient enrollment was approved by the IRB committee at Rhode Island Hospital. GraphPad PRISM 8 software was used to perform all statistical analyses. Results were presented as mean±standard error of the mean (SEM) of different samples and considered significant when p<0.05. A t-test was used to compare any two groups. See Appendix II for data and further discussion.

The mark [5] stands for this setting: male ACL cells, relaxin-2 treatments vs control groups.

Regarding serelaxin, in assay [1], the 180-day mortality result is given as “improvement” and the short-term dyspnea scores result is “improvement”.
For `NC(=O)C1=CN([C@@H]2O[C@H](COP(=O)(O)OP(=O)(O)OC[C@H]3O[C@@H](n4cnc5c(N)ncnc54)[C@H](O)[C@@H]3O)[C@@H](O)[C@H]2O)C=CC1` [NADH, nicotinamide adenine dinucleotide hydride], in assay [2], the MMP-13 expression result was “significant decrease”, the “collagen 1A expression” value was “significant increases” and the “collagen 3A expression” value was “significant increases”.
For the molecule relaxin-2, the MMP13 expression entry in the assay with patient ACL cells [3] (female ACL cells, 10 ng/mL of relaxin-2, vs untreated controls) is given as “increased”. Further, the MMP1 expression result is “increased” with patient ACL cells [3] (female ACL cells, 100 ng/mL of relaxin-2, vs untreated controls) and “didn't significant change” in the assay with patient ACL cells [3] (setting [5]). Further, the MMP3 expression entry in the assay with patient ACL cells [3] (setting [5]) was “didn't significant change”. In addition, the cAMP levels entry in the assay with patient ACL cells [4] is listed as “couldn't change”.
As to vitamin D, the MMP13 gene expression entry is “increased” in the assay with ACL cells (female cells, vitamin D 1 nmol/L); “reduced” in the assay on ACL cells (female cells, vitamin D 10 nmol/L); “increased” with ACL cells (male cells, vitamin D 1 nmol/L); “reduced” with ACL cells (male cells, vitamin D 100 nmol/L). Besides, the figures for the “Type I collagen expression” value in the assay on ACL cells (female cells) and in the assay on ACL cells (male cells) were “increased” and “not observed”, respectively.
As to `Nc1nc2ncc(CNc3ccc(C(=O)N[C@@H](CCC(=O)O)C(=O)O)cc3)nc2c(=O)[nH]1` [Folic acid], in assay [2], the MMP-13 expression result is “significant decrease”, the “collagen 1A expression” value was “significant increases” and the “collagen 3A expression” value is recorded as “significant increases”.
